Like-named read-outs stand apart in the source and are kept apart here.
Tests used:
LuxS of E. coli = target: T1, LuxS of E. coli (Escherichia coli O157:H7, UniProt Q8X902); experiment: AI-2 bioluminescence assay (V. harveyi BB170 reporter) of AI-2 production; format: cell-based; conditions: E. coli O157:H7 cultured 16 h with inhibitor, supernatant read with V. harveyi BB170
T1 construct: endogenous in cells; host or cells: E. coli O157:H7 (ATCC 43895)
T1 sequence (Q8X902 2-171): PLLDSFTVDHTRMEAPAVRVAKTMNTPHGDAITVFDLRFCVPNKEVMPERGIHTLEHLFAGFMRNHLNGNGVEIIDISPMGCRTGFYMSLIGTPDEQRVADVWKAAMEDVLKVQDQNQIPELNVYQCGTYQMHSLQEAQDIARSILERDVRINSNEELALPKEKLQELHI

Caco-2 cells = experiment: Cytotoxicity, CCK-8 assay; format: cell-based; conditions: 24 h
Description: The cytotoxicity of hit compounds was assessed by a CCK-8 assay in Caco-2 cells. At 37°C, Caco-2 cells (1 × 10^5 cells/mL) were seeded in a 96-well plate for 24 h. Further, different concentrations of hit compounds were added to 96-well plates at final concentrations of 6.25, 12.5, 25, 50, and 100 μM. After incubation for 24 h, the plate was incubated at 37°C for 1 h with 10 μL of CCK-8 (MCE, China). A Multiskan Go Reader (Thermo Fisher Scientific) was used to measure the absorbance at 450 nm.

luxS gene = format: cell-based, E. coli
LuxS = target: T2, LuxS (Escherichia coli O157:H7, UniProt Q8X902); experiment: Surface plasmon resonance (BIAcore T200) binding
T2 sequence (Q8X902 2-171): T1 sequence (Q8X902 2-171)
Description: The binding affinity of the three compounds and LuxS was assessed by SPR assay using a BIAcore T200 (GE Healthcare, Pittsburgh, PA) ([64]). The LuxS protein was immobilized on a CM5 sensor chip with the final immobilization levels of 7,582.4 resonance units (RU). The running buffer used in the study was 1.0× phosphate-buffered saline containing detergent (PBS-P^+; pH 7.4) and 5% (vol/vol) dimethyl sulfoxide. For each binding cycle, the compound was injected for 120 s with a dissociation time of 180 s. A series of compound concentrations (0.94, 1.88, 3.75, 7.5, 15, and 30 μM) were injected for analysis, with furanone C30 as a positive control. Eventually, data were analyzed by Biacore evaluation software, whereas the equilibrium dissociation constant (KD = Kd/Ka) was calculated by curve fitting with a 1:1 binding model.

E. coli O157:H7 biofilm = experiment: Biofilm formation, crystal violet (CV) staining; format: cell-based, Escherichia coli O157:H7; conditions: 50 μM, 24 h
Description: Based on previous studies, CV staining was used to assess biofilm formation ([67]). The overnight cultured E. coli O157:H7 was diluted to OD600 of 0.01. The diluted E. coli suspensions were mixed with different concentrations of hit compounds and incubated at 37°C for 24 h. The plate was washed three times using PBS (pH 7.2) before it was fixed with methanol for 30 min. After staining for 30 min with CV, the plates were rinsed with distilled water and dried at 55°C. Finally, the CV attached to wells was dissolved in 95% ethanol. The absorbance at 570 nm was then measured using a Multiskan Go Reader.

E. coli O157:H7 [1] = experiment: Growth, microbroth dilution assay (OD600); format: cell-based, Escherichia coli O157:H7; conditions: 6.25 to 100 μM, 24 h, compared to the control
Description: As described for previous protocols, growth and metabolic activity were evaluated by the broth dilution method and an alamarBlue assay ([65], [66]). Briefly, 96-well plates were seeded with bacterial suspension (OD600 = 0.01) containing different concentrations of hit compounds and incubated at 37°C for 24 h. At 600 nm, the absorbance was measured using the Multiskan Go Reader (Thermo Fisher Scientific, USA).

E. coli O157:H7 [2] = experiment: Metabolic activity, alamarBlue assay; conditions: 6.25 to 100 μM, 24 h, compared to the control
[3] = IC50, AI-2 bioluminescence assay

SMILES | IC50 (LuxS of E. coli; [3]) | also measured
O=C(NCc1nc2ccccc2[nH]1)c1ccccc1 [0180-0358] | 22.5 µM | –
CCOc1ccc(NCC(=O)N/N=C/c2c[nH]c3ccccc23)cc1 [1761-1352] | 29.2 µM | –
O=C(N/N=C/c1ccc(O)c(O)c1)c1cc(-c2ccc3ccccc3c2)n[nH]1 [3254-3286] | 7.57 µM | cytotoxicity to Caco-2 cells (Caco-2 cells; 6.25 to 100 μM): nontoxic; suppression of the expression of LuxS (luxS gene): ~57.4%; Kd (LuxS): 18.5 µM; biofilm formation, increased by about (E. coli O157:H7 biofilm): ~81.12%; effect on growth of E. coli (E. coli O157:H7 [1]): no significant effect; effect on metabolic activity of E. coli (E. coli O157:H7 [2]): no significant effect
COc1ccc2[nH]c(C(=O)NC3CCC(CN4Cc5ccccc5C4=O)CC3)c(C)c2c1 (stereo not shown) [D753-0186] | 18.8 µM | –
Cc1ccc2ccc3cc(C(=O)NCCN4CCN(c5cccc(Cl)c5)CC4)[nH]c3c2n1 [E941-0195] | 28.5 µM | –
O=C(NCCN1CCN(c2cccc(Cl)c2)CC1)c1cc2ccc3cccnc3c2[nH]1 [E950-0195] | 32.8 µM | –
O=C(NCCN1CCN(c2ccccc2F)CC1)c1cc2ccc3cccnc3c2[nH]1 [E950-0198] | 30.9 µM | –
Cc1cc(CNC(=O)Nc2cccc3c2CCCC3)c(C)n1-c1ccccc1 [E983-1808] | 21.9 µM | –
NC1=C(c2nc3ccccc3s2)C(=O)CN1c1cccc(C(=O)NCc2ccccc2)c1 [F187-0533] | 13.6 µM | –
Cc1[nH]c(C(=O)NC2CCCCC2)c(C)c1S(=O)(=O)N1CCCCCC1 [F379-1612] | 26.1 µM | –
COc1ccc(C(=O)Nc2cc(NC(=O)c3cc4ccccc4[nH]3)ccc2OC)cc1 [F603-0744] | 12.3 µM | –
O=C(NCC1CCN(Cc2ccc(Cl)cc2)CC1)c1n[nH]c2c1COc1ccccc1-2 [G365-0523] | 12.2 µM | –
COc1cccc(NC(=O)CSCc2cc(=O)c3ccccc3[nH]2)c1 [G751-0153] | 16.8 µM | –
CCc1ccc(NC(=O)CSCc2cc(=O)c3cccc(F)c3[nH]2)cc1 [G751-5415] | 26.4 µM | –
CCc1ccc(NC(=O)CSCc2cc(=O)c3cc(CC)ccc3[nH]2)cc1 [G751-5495] | 24.8 µM | –
Cc1ccc(C(=O)N2CCc3cc(CNC(=O)c4ccc(C#N)cc4)ccc32)cc1 [G883-0304] | 19 µM | –

SMILES | IC50 (LuxS of E. coli; [3]) | also measured
Cc1ccc(C(=O)N2CCc3cc(CNC(=O)c4ccc(Br)cc4)ccc32)cc1 [G883-0331] | 15 µM | –
Cc1ccc(C(=O)NCc2ccc3c(c2)CCN3C(=O)c2ccc(Cl)cc2)cc1 [G883-0476] | 18.6 µM | –
O=C(NCc1ccc2c(c1)CCN2C(=O)c1ccccc1)c1ccc(Cl)cc1 [G883-0595] | 18.6 µM | –
O=C(NCc1ccc2c(c1)CCN2C(=O)c1ccccc1)c1ccc(Br)cc1 [G883-0627] | 19.6 µM | –
O=C(NCc1ccc2c(c1)CCN2C(=O)c1ccc(F)cc1)c1cc2ccccc2[nH]1 [G883-0849] | 21.8 µM | –
CC(C)C(=O)N1CCc2cc(CNC(=O)c3cc4ccccc4[nH]3)ccc21 [G883-2010] | 24.9 µM | –
O=C(NCc1nc(-c2ccc3c(c2)ncn3C2CCCC2)no1)c1ccccc1 [G945-0601] | 13.4 µM | –
O=C(NC1CCN(Cc2ccccc2)CC1)c1ccc(-c2cc(N3CCCC3)ncn2)cc1 [L010-0050] | 20.4 µM | –
CSc1ccc(CNC(=O)c2cccc(-c3cnc(N4CCCC4)nc3)c2)cc1 [L368-0079] | – | biofilm formation, increased by about (E. coli O157:H7 biofilm): ~76.8%; IC50 (LuxS of E. coli; AI-2 bioluminescence assay): 7.01 µM
CCC(=O)N1CCc2cc(-c3ccc(C(=O)NC4CCN(Cc5ccccc5)CC4)cc3)ccc21 [L413-0101] | 13.3 µM | –
CCC(=O)N1CCc2cc(-c3ccc(C(=O)NCc4ccc(N(C)C)cc4)cc3)ccc21 [L413-0180] | 4.03 µM | cytotoxicity to Caco-2 cells (Caco-2 cells; 100 μM): slightly cytotoxic; cytotoxicity to Caco-2 cells (Caco-2 cells; 6.25 to 50 μM): nontoxic; suppression of the expression of LuxS (luxS gene): ~65.1%; Kd (LuxS): 77.7 µM; biofilm formation, increased by about (E. coli O157:H7 biofilm): ~51.4%; effect on growth of E. coli (E. coli O157:H7 [1]): no significant effect; effect on metabolic activity of E. coli (E. coli O157:H7 [2]): no significant effect
CSc1ccc(CNC(=O)C2=Cc3cc(-c4ccccc4)ccc3OC2)cc1 [L449-1159] | – | biofilm formation, increased by about (E. coli O157:H7 biofilm): about 75.4%; IC50 (LuxS of E. coli; AI-2 bioluminescence assay): 8.64 µM
CCCn1cnc2cc(CNC(=O)c3cc4cc(Cl)ccc4[nH]3)ccc21 [M414-3326] | – | cytotoxicity to Caco-2 cells (Caco-2 cells; 6.25 to 100 μM): nontoxic; suppression of the expression of LuxS (luxS gene): about 59.9%; Kd (LuxS; read-out: equilibrium dissociation constant (KD), LuxS immobilized on CM5 chip, PBS-P+ pH 7.4, 5% DMSO, 1:1 binding model): 1.92 µM; biofilm formation, increased by about (E. coli O157:H7 biofilm): ~53.6%; effect on growth of E. coli (E. coli O157:H7 [1]): no significant effect; effect on metabolic activity of E. coli (E. coli O157:H7 [2]): no significant effect; IC50 (LuxS of E. coli; AI-2 bioluminescence assay): 9.62 µM
CCCc1c(C)c2ccc(OC(=O)CNC(=O)c3ccccc3)cc2oc1=O [Y040-2389] | 12.8 µM | –
O=C1C=C(Br)/C(=C/Br)O1 [furanone C30, reference compound] | – | Kd (LuxS; LuxS immobilized on CM5 chip, PBS-P+ pH 7.4, 5% DMSO, 1:1 binding model, read-out: equilibrium dissociation constant (KD)): 0.345 µM

— PMC10100900, “Virtual Screening and In Vitro Experimental Verification of LuxS Inhibitors for Escherichia coli O157:H7” (Microbiology Spectrum, 2023)
